Tests used:
Assay type in all cases: functional
[1] = system: MCF7; experiment: Cytotoxicity against human MCF7 cells; details: read-out: ED50 (the source's name)
[2] = system: A549; experiment: Cytotoxicity against human A549 cells; details: read-out: ED50 (the source's name)
[3] = system: P388; experiment: Cytotoxicity against mouse P388 cells

## CCCCCCCCCC[C@@H](O)[C@@H]1CC[C@H]([C@H]2CC[C@@H]([C@@H](O)CCCCCCCCCCC(O)CC3=CC(C)OC3=O)O2)O1 (stereo partly drawn)
[1]
  EC50: < 1 ng/mL
[2]
  EC50: < 1 ng/mL

## CCCCCCCCC[C@@H](O)[C@@H](O)[C@@H]1CC[C@@H]([C@@H]2CC[C@@H]([C@@H](O)CCCCCCCCCCCCC3=CC(C)OC3=O)O2)O1 (stereo partly drawn) [ROLLINICIN]
[3]
  ED50: 2.9 ×10⁻⁸ ug/ml

From ChEMBL document CHEMBL1147297, “4-Hydroxy-25-desoxyneorollinicin, a new bistetrahydrofuranoid acetogenin from Rollinia papilionella” (1989)
